Measurements taken from publication PMC4263610, “Derivation of ligands for the complement C3a receptor from the C-terminus of C5a” (European Journal of Pharmacology, 2014).
Ends that are not written are not given here.

What was measured:
C3a receptor = C3a receptor (Homo sapiens, UniProt Q16581); test: xCELLigence, antagonism of peptide-evoked response by C3a receptor antagonist SB 290157 in HMDM; type: cell-based; settings: n=3–5
Description: (§1) HMDM were seeded overnight at 30,000 cells/well in 384-well E-Plates (Roche). Approximately 24 h later, HMDM media were exchanged for serum-free IMDM and equilibrated at 37 °C and 5% CO2 for 2 h prior to ligand addition. Ligands were prepared at a final DMSO concentration of 0.5% (or less) in serum-free IMDM. […] After agonist addition, measurements were taken continuously for ~1.5 h at 37 °C. The RTCA software was used for data analysis, with statistical analysis using GraphPad Prism 5.0c (GraphPAD Software Inc., San Diego, CA).

[1] = molecular target: T1, human monocyte-derived macrophages (HMDM) (Homo sapiens, UniProt Q16581); test: xCELLigence cell impedance assay, agonist activity on HMDM; type: cell-based; settings: for EC50: xCELLigence impedance, dose-response, serum-free IMDM, 37 °C, n=3–5; for response in initial single dose screen: single dose of 8 μM, n=4–6, hit = P<0.001; for xCELLigence response profile: C3a and C5a at 100 nM
T1 sequence (Q16581 1-482): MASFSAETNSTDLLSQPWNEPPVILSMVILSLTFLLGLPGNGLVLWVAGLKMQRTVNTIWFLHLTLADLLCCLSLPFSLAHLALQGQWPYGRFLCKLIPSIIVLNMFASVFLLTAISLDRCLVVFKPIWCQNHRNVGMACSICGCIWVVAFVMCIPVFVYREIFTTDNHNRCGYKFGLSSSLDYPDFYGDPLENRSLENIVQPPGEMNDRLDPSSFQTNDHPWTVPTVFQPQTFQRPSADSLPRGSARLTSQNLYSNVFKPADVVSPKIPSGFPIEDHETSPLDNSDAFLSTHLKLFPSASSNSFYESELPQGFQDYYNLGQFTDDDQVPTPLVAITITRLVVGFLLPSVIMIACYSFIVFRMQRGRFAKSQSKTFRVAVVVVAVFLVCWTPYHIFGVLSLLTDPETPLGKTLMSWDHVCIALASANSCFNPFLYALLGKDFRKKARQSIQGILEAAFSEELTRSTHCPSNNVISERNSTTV
Description: Human monocytes were isolated from blood donations to the Australian Red Cross Blood Service (Kelvin Grove, Queensland). The isolation of mononuclear cells was as described previously by [Halai and Cooper (2012)]. Briefly, the mononuclear cell layer was separated using density gradient centrifugation with Ficoll-Paque Plus (GE Healthcare). MACS magnetic beads (Miltenyi Biotec) were incubated with the cells for 15 min at 4 °C before passing through an LS column (Miltenyi Biotec) to select for the CD14+ cells. Selected monocytes were plated at a density of 1.5×10^7 in Iscove׳s Modified Dulbecco׳s Medium (IMDM) (Invitrogen Life Technologies) containing L-glutamine supplemented with 10% Fetal Bovine Serum (FBS), 50 IU/ml penicillin and 50 μg/ml streptomycin. Human macrophage colony-stimulating factor (M-CSF) (Peprotech) was added to media to allow cells to differentiate into human monocyte-derived macrophages (HMDM). Over the 7 day differentiation process, cells were incubated at 37 °C and 5% CO2.
as §1

human C3a receptor = molecular target: T2, human C3a receptor (Homo sapiens, UniProt Q16581); test: RBL-2H3 degranulation assay (β-hexosaminidase), agonist, human C3a receptor; type: cell-based; settings: RBL-2H3 transfected with human C3a receptor, 100 µM peptide (Fig. 3 legend: 50 μM), 15 min, β-hexosaminidase secretion, relative to FLPLAR
T2 construct: expressed in transfected cells; host or cells: RBL-2H3 (rat basophilic leukemia) cells
T2 sequence (Q16581 1-482): T1 sequence (Q16581 1-482)
Description: RBL-2H3 cells transfected with either human C5a1 or human C3a receptor ([Cain and Monk, 2002]) were routinely cultured in Dulbecco׳s Modified Eagle׳s Medium, 10% (v/v) fetal calf serum, and 400 mg/l G-418 at 37 °C in 5% CO2. Degranulation was measured by assaying for β-hexosaminidase activity in the cell supernatant, as described previously ([Monk et al., 1994]). In agonist assays, degranulation was calculated as a percentage of maximal activity in response to 200 nM recombinant human C3a, human C5a ([Cain and Monk, 2002]), or 10 nM agonist hexapeptide, FLPLAR ([Scully et al., 2010]). […]
RBL-2H3 cells transfected with either human C5a1 or human C3a receptor ([Cain and Monk, 2002]) were used to confirm hits detected in HMDM, using degranulation as a read-out ([Monk et al., 1994]). In cells transfected with C5a1, very weak agonist activity was detected in two groups of peptides, although even at 100 µM (the maximal dose achievable in the presence of the DMSO, which has adverse effects >1%), the activation obtained was 5–10% of the maximum activation achieved by a high dose of C5a (Fig. 3, top panel). […]
Fig. 3 Agonist activity of peptides at human C5a1 and C3a receptors expressed in rat basophilic leukemia cells (RBL-2H3). […] Degranulation was measured as the secretion of β-hexosaminidase. […]

C5a receptors = settings: ref Taylor and Fairlie, 2005; cited from earlier work
Text: C3a receptor/C5a1 promiscuity is not unusual and has been previously observed for whole C3a and a synthetic peptide agonist ([Ames et al., 1996]) and a chimeric C5a with the C3a C-terminal pentapeptide ([Bautsch et al., 1992]). In fact, early efforts to create potent and selective antagonists of C5a1 led to only partial agonists ([Taylor and Fairlie, 2005]).

N=C(N)NCCC[C@H](NC(=O)COCC(c1ccccc1)c1ccccc1)C(=O)O [SB 290157]
IC50 (C3a receptor; agonist peptide 20 at about its EC50, antagonist pre-incubated 1 h): 1.3 nM
IC50 (C3a receptor; agonist peptide 31 at about its EC50, antagonist pre-incubated 1 h): 67 nM
IC50 (C3a receptor; agonist peptide 47 at about its EC50, antagonist pre-incubated 1 h): 44 nM
IC50 (C3a receptor; agonist peptide 49 at about its EC50, antagonist pre-incubated 1 h): 15 nM
IC50 (C3a receptor; agonist peptide 54 at about its EC50, antagonist pre-incubated 1 h): 29 nM

Ac-NNYNLWR-OH [Peptide 20, Ac-NNYNLWR]
EC50 [1]: 5800 nM
response in initial single dose screen ([1]; xCELLigence): significant hits

Ac-RHYPLWR-OH [Peptide 31, Ac-RHYPLWR]
activation of C3a receptor (degranulation) (human C3a receptor): very strong activation
EC50 [1]: 1100 nM
response in initial single dose screen ([1]; xCELLigence): significant hits

Ac-RLYPLWR-OH [Peptide 47, Ac-RLYPLWR]
EC50 [1]: 1200 nM
response in initial single dose screen ([1]; xCELLigence): significant hits

Ac-RYPLWR-OH [Peptide 54, Ac-RYPLWR]
activation of C3a receptor (degranulation) (human C3a receptor): very strong activation
EC50 [1]: 3000 nM
response in initial single dose screen ([1]; xCELLigence): significant hits

Ac-TIYRLWR [Peptide 49, Ac-TIYRLWR]
EC50 [1]: 17000 nM

Ac-TLLRLWR [Peptide 48]
outcome of full dose range retest ([1]; xCELLigence, full dose range): a full dose response could not be obtained
response in initial single dose screen ([1]; xCELLigence): significant hits

AcPhe[Lornithine-Pro-D-cyclohexylalanine-Trp-Arg] (sidechain bridge or staple) [PMX53, cyclic C5a1 antagonist]
receptor affinity (C5a receptors): low nanomolar range

C3a: complement fragment C3a, 77-residue protein, recombinant human [Peptide C3a]
xCELLigence response profile [1]: single peak profile
cell index (intensity of the signal) ([1]; xCELLigence): 1.98
time of signal peak after addition ([1]; xCELLigence): ~ 1 min

B1: C5a: complement fragment C5a, 74-residue protein, human (protein, UniProt P01031 678-751, looked up)
C5a anaphylatoxin: TLQKKIEEIAAKYKHSVVKKCCYDGACVNNDETCEQRAARISLGPRCIKAFTECCVVASQLRANISHKDMQLGR
modifications: C5a anaphylatoxin
notes: complement fragment C5a, 74-residue protein, human
xCELLigence response profile [1]: two-peak profile
cell index (intensity of the signal) ([1]; xCELLigence): 4.53
time of signal peak after addition ([1]; xCELLigence): ~ 4 min
